Where “and” joins values, the source holds several entries; their conditions need not be identical. Equal values may be shown once. Inconclusive results are not listed. *1 amine or outer side, *2 acyl side, *3 side chain or, on linkers, in order; H or OH if unused. Where a SMILES comes first, the peptide text is derived from it. Bridges are numbered along the chain shown (N, C = ends). Roman numbers before positions name the chains, in order. [ ]: non-standard residue; d: D form. Actinocin(9to1) = Cc1c2oc3c(C)ccc(C(=O)[*:1])c3nc-2c(C(=O)[*:2])c(N)c1=O; aThr = C[C@H](O)[C@H](N)C(=O)O; NMeV = CN[C@H](C(=O)O)C(C)C; Sar = CNCC(=O)O
System: BDF1 mice, s.c. Lewis lung carcinoma, T/C %
Assay: NCI In Vivo Anticancer Drug Screen. Data for tumor model Lewis Lung Carcinoma (subcutaneous) in B6D2F1 (BDF1) mice
Method: The antitumor activity of compounds was measured in mice bearing transplantable tumors. Survival or tumor size were measured and the results are expressed as the measurement made in the treated group (T) divided by the measurement made in the vehicle treated control group (C). The tumor model used in this assay is Lewis Lung Carcinoma (subcutaneous) in B6D2F1 (BDF1) mice

CN(C)CC/C=C1\c2ccccc2Sc2ccc(Cl)cc21
T/C (endpoint: median survival time, dose: 1.87 mg/kg/injection, schedule: Q01DX001 (ip), vehicle: Klucel (hydroxypropylcellulose) (HPC), higher = longer survival): 102 % of control | T/C (endpoint: median survival time, dose: 3.75 mg/kg/injection, schedule: Q01DX001 (ip), vehicle: Klucel (hydroxypropylcellulose) (HPC), higher = longer survival): 109 % of control | T/C (endpoint: median survival time, dose: 7.5 mg/kg/injection, schedule: Q01DX001 (ip), vehicle: Klucel (hydroxypropylcellulose) (HPC), higher = longer survival): 88 % of control | T/C (endpoint: median survival time, dose: 15.0 mg/kg/injection, schedule: Q01DX001 (ip), vehicle: Klucel (hydroxypropylcellulose) (HPC), higher = longer survival): 102 % of control

NCC(O)c1ccc(O)c(O)c1 (configuration not stated)
T/C (endpoint: mean tumor weight, dose: 2.5 mg/kg/injection, schedule: Q01DX011 (ip), vehicle: saline, higher = larger tumour): 105 % of control | T/C (endpoint: mean tumor weight, dose: 5.0 mg/kg/injection, schedule: Q01DX011 (ip), vehicle: saline, higher = larger tumour): 161 % of control | T/C (endpoint: mean tumor weight, dose: 10.0 mg/kg/injection, schedule: Q01DX011 (ip), vehicle: saline, higher = larger tumour): 63 % of control

Cc1c2oc3c(C)ccc(C(=O)N[C@@H]4C(=O)N[C@H](C(C)C)C(=O)N5CCC[C@H]5C(=O)N(C)CC(=O)N(C)[C@@H](C(C)C)C(=O)O[C@H]4C)c3nc-2c(C(=O)N[C@@H]2C(=O)N[C@H](C(C)C)C(=O)N3CCC[C@H]3C(=O)N(C)CC(=O)N(C)[C@@H](C(C)C)C(=O)O[C@H]2C)c(N)c1=O (I: [aThr][dV]P[Sar][NMeV] / II: [aThr][dV]P[Sar][NMeV]; ester I:1-I:C, II:1-II:C; linker I:N-II:N via Actinocin(9to1))
T/C (endpoint: mean tumor weight, dose: 0.03 mg/kg/injection, schedule: Q01DX011 (ip), vehicle: saline, higher = larger tumour): 89 % of control | T/C (endpoint: mean tumor weight, dose: 0.05 mg/kg/injection, schedule: Q01DX011 (ip), vehicle: saline, higher = larger tumour): 55 % of control | T/C (endpoint: mean tumor weight, dose: 12.0 micrograms/kg/injection, schedule: Q01DX011 (ip), vehicle: other, higher = larger tumour): 122 % of control | T/C (endpoint: mean tumor weight, dose: 25.0 micrograms/kg/injection, schedule: Q01DX011 (ip), vehicle: other, higher = larger tumour): 95 % of control and 98 % of control | T/C (endpoint: mean tumor weight, dose: 50.0 micrograms/kg/injection, schedule: Q01DX011 (ip), vehicle: other, higher = larger tumour): 42 % of control and 49 % of control | T/C (endpoint: median survival time, dose: 12.5 micrograms/kg/injection, schedule: Q01DX009 (ip), vehicle: saline, higher = longer survival): 98 % of control and 122 % of control | T/C (endpoint: median survival time, dose: 12.5 micrograms/kg/injection, schedule: Q01DX009 (ip), vehicle: water, higher = longer survival): 112 % of control | T/C (endpoint: median survival time, dose: 13.0 micrograms/kg/injection, schedule: Q01DX009 (ip), vehicle: saline, higher = longer survival): 116 % of control | T/C (endpoint: median survival time, dose: 25.0 micrograms/kg/injection, schedule: Q01DX009 (ip), vehicle: water, higher = longer survival): 120 % of control | T/C (endpoint: median survival time, dose: 50.0 micrograms/kg/injection, schedule: Q01DX009 (ip), vehicle: water, higher = longer survival): 102 % of control | T/C (endpoint: median survival time, dose: 75.0 micrograms/kg/injection, schedule: Q04DX003 (ip), vehicle: water, higher = longer survival): 153 % of control | T/C (endpoint: median survival time, dose: 150.0 micrograms/kg/injection, schedule: Q04DX003 (ip), vehicle: water, higher = longer survival): 105 % of control | T/C (endpoint: median tumor weight (est.), dose: 12.0 micrograms/kg/injection, schedule: Q01DX009 (ip), vehicle: saline, higher = larger tumour): 88 % of control | T/C (endpoint: median tumor weight (est.), dose: 25.0 micrograms/kg/injection, schedule: Q01DX009 (ip), vehicle: saline, higher = larger tumour): 98 % of control | T/C (endpoint: median tumor weight (est.), dose: 50.0 micrograms/kg/injection, schedule: Q01DX009 (ip), vehicle: saline, higher = larger tumour): 70 % of control | T/C (endpoint: median tumor weight (est.), dose: 100.0 micrograms/kg/injection, schedule: Q01DX009 (ip), vehicle: saline, higher = larger tumour): 51 % of control

C=C(C(=O)O)C(=O)O
T/C (endpoint: median survival time, dose: 50.0 mg/kg/injection, schedule: Q01DX009 (ip), vehicle: saline, higher = longer survival): 105 % of control | T/C (endpoint: median survival time, dose: 100.0 mg/kg/injection, schedule: Q01DX009 (ip), vehicle: saline, higher = longer survival): 105 % of control | T/C (endpoint: median survival time, dose: 200.0 mg/kg/injection, schedule: Q01DX009 (ip), vehicle: saline, higher = longer survival): 103 % of control

CN(N=O)C(=O)N[C@@H](C=O)[C@@H](O)[C@H](O)[C@H](O)CO
T/C (endpoint: mean tumor weight (est.), dose: 20.0 mg/kg/injection, schedule: Q01DX009 (ip), vehicle: water, higher = larger tumour): 93 % of control | T/C (endpoint: mean tumor weight (est.), dose: 40.0 mg/kg/injection, schedule: Q01DX009 (ip), vehicle: water, higher = larger tumour): 65 % of control | T/C (endpoint: mean tumor weight (est.), dose: 80.0 mg/kg/injection, schedule: Q01DX009 (ip), vehicle: water, higher = larger tumour): 42 % of control | T/C (endpoint: median survival time, dose: 20.0 mg/kg/injection, schedule: Q01DX009 (ip), vehicle: water, higher = longer survival): 115 % of control | T/C (endpoint: median survival time, dose: 40.0 mg/kg/injection, schedule: Q01DX001 (ip), vehicle: other, higher = longer survival): 99 % of control and 105 % of control | T/C (endpoint: median survival time, dose: 40.0 mg/kg/injection, schedule: Q01DX001 (ip), vehicle: saline, higher = longer survival): 86 % of control | T/C (endpoint: median survival time, dose: 40.0 mg/kg/injection, schedule: Q01DX009 (ip), vehicle: water, higher = longer survival): 94 % of control | T/C (endpoint: median survival time, dose: 80.0 mg/kg/injection, schedule: Q01DX001 (ip), vehicle: other, higher = longer survival): 90 % of control and 108 % of control | T/C (endpoint: median survival time, dose: 80.0 mg/kg/injection, schedule: Q01DX001 (ip), vehicle: saline, higher = longer survival): 94 % of control | T/C (endpoint: median survival time, dose: 160.0 mg/kg/injection, schedule: Q01DX001 (ip), vehicle: other, higher = longer survival): 98 % of control and 111 % of control | T/C (endpoint: median survival time, dose: 160.0 mg/kg/injection, schedule: Q01DX001 (ip), vehicle: saline, higher = longer survival): 108 % of control | T/C (endpoint: median survival time, dose: 320.0 mg/kg/injection, schedule: Q01DX001 (ip), vehicle: other, higher = longer survival): 99 % of control | T/C (endpoint: median survival time, dose: 320.0 mg/kg/injection, schedule: Q01DX001 (ip), vehicle: saline, higher = longer survival): 91 % of control

CCN(CC)CCNc1ccc(C)c2sc3ccccc3c(=O)c12
T/C (endpoint: mean tumor weight, dose: 20.0 mg/kg/injection, schedule: Q01DX011 (ip), vehicle: carboxymethylcellulose (CMC), higher = larger tumour): 62 % of control and 65 % of control | T/C (endpoint: mean tumor weight, dose: 40.0 mg/kg/injection, schedule: Q01DX011 (ip), vehicle: carboxymethylcellulose (CMC), higher = larger tumour): 51 % of control and 59 % of control | T/C (endpoint: mean tumor weight, dose: 80.0 mg/kg/injection, schedule: Q01DX011 (ip), vehicle: carboxymethylcellulose (CMC), higher = larger tumour): 16 % of control

O=C1C(=O)c2ccccc2C(O)=C1CC=C(Cl)Cl
T/C (endpoint: mean tumor weight, dose: 12.5 mg/kg/injection, schedule: Q01DX011 (ip), vehicle: carboxymethylcellulose (CMC), higher = larger tumour): 88 % of control | T/C (endpoint: mean tumor weight, dose: 25.0 mg/kg/injection, schedule: Q01DX011 (ip), vehicle: carboxymethylcellulose (CMC), higher = larger tumour): 76 % of control | T/C (endpoint: mean tumor weight, dose: 50.0 mg/kg/injection, schedule: Q01DX011 (ip), vehicle: carboxymethylcellulose (CMC), higher = larger tumour): 90 % of control | T/C (endpoint: mean tumor weight, dose: 50.0 mg/kg/injection, schedule: Q01DX011 (oral), vehicle: carboxymethylcellulose (CMC), higher = larger tumour): 84 % of control | T/C (endpoint: median survival time, dose: 12.5 mg/kg/injection, schedule: Q01DX009 (ip), vehicle: Klucel (hydroxypropylcellulose) (HPC), higher = longer survival): 89 % of control and 100 % of control and 106 % of control | T/C (endpoint: median survival time, dose: 25.0 mg/kg/injection, schedule: Q01DX009 (ip), vehicle: Klucel (hydroxypropylcellulose) (HPC), higher = longer survival): 86 % of control and 94 % of control and 110 % of control | T/C (endpoint: median survival time, dose: 34.0 mg/kg/injection, schedule: Q01DX009 (ip), vehicle: water, higher = longer survival): 113 % of control | T/C (endpoint: median survival time, dose: 50.0 mg/kg/injection, schedule: Q01DX009 (ip), vehicle: Klucel (hydroxypropylcellulose) (HPC), higher = longer survival): 103 % of control and 110 % of control | T/C (endpoint: median survival time, dose: 50.0 mg/kg/injection, schedule: Q01DX009 (ip), vehicle: water, higher = longer survival): 110 % of control | T/C (endpoint: median survival time, dose: 100.0 mg/kg/injection, schedule: Q01DX009 (ip), vehicle: Klucel (hydroxypropylcellulose) (HPC), higher = longer survival): 117 % of control | T/C (endpoint: median tumor weight (est.), dose: 12.5 mg/kg/injection, schedule: Q01DX009 (ip), vehicle: Klucel (hydroxypropylcellulose) (HPC), higher = larger tumour): 93 % of control and 99 % of control | T/C (endpoint: median tumor weight (est.), dose: 25.0 mg/kg/injection, schedule: Q01DX009 (ip), vehicle: Klucel (hydroxypropylcellulose) (HPC), higher = larger tumour): 78 % of control and 86 % of control | T/C (endpoint: median tumor weight (est.), dose: 50.0 mg/kg/injection, schedule: Q01DX009 (ip), vehicle: Klucel (hydroxypropylcellulose) (HPC), higher = larger tumour): 87 % of control | T/C (endpoint: median tumor weight (est.), dose: 100.0 mg/kg/injection, schedule: Q01DX009 (ip), vehicle: Klucel (hydroxypropylcellulose) (HPC), higher = larger tumour): 70 % of control

N#CC(Cc1ccccc1)C(=O)O (configuration not stated)
T/C (endpoint: mean tumor weight, dose: 55.0 mg/kg/injection, schedule: Q01DX011 (ip), vehicle: other, higher = larger tumour): 80 % of control | T/C (endpoint: mean tumor weight, dose: 83.0 mg/kg/injection, schedule: Q01DX011 (ip), vehicle: other, higher = larger tumour): 68 % of control | T/C (endpoint: mean tumor weight, dose: 125.0 mg/kg/injection, schedule: Q01DX011 (ip), vehicle: other, higher = larger tumour): 75 % of control and 82 % of control | T/C (endpoint: mean tumor weight, dose: 187.0 mg/kg/injection, schedule: Q01DX011 (ip), vehicle: other, higher = larger tumour): 46 % of control | T/C (endpoint: mean tumor weight, dose: 250.0 mg/kg/injection, schedule: Q01DX011 (ip), vehicle: other, higher = larger tumour): 63 % of control | T/C (endpoint: mean tumor weight, dose: 500.0 mg/kg/injection, schedule: Q01DX011 (ip), vehicle: other, higher = larger tumour): 19 % of control

— PubChem BioAssay AID270 (DTP/NCI, 2004)
